PMC6934184, “Selective DNA-PKcs inhibition extends the therapeutic index of localized radiotherapy and chemotherapy” (The Journal of Clinical Investigation, 2019)

Target: T1, LRRK2 R1441C (Homo sapiens, UniProt Q5S007, R1441C)
T1 construct: purchased Thermo Fisher Scientific (Life Technologies) SelectScreen
Assay: SelectScreen Adapta
Type: biochemical
Protocol: The in vitro kinase selectivity of NU5455 was determined using the SelectScreen Broad Assay Panel (Thermo Fisher Scientific) involving activity and binding assays (Supplemental Table 1). […] Class IA PI3Ks were measured using the p85α subunit.
Kinase [ATP] % Assay Kinase [ATP] % Assay Kinase [ATP] % Assay Kinase [ATP] % Assay […]
SGK (SGK1) Km app 8.5 Z MAP4K2 (GCK) Km app 2.7 Z TLK2 n/a -0.3 L STK38 (NDR) n/a -5.9 L
MERTK (cMER) Km app 8.3 Z CDK2/cyclin A Km app 2.7 Z TGFBR1 (ALK5) n/a -0.4 L MATK (HYL) Km app -6.3 Z
FYN Km app 8.3 Z EPHA1 Km app 2.7 Z CLK3 Km app -0.5 Z ABL1 E255K Km app -6.6 Z
TEC n/a 8.1 L CDK2/cyclin E1 n/a 2.7 L MAP3K14 (NIK) n/a -0.5 L STK17A (DRAK1) n/a -6.6 L
KIT V654A n/a 8.1 L TESK2 n/a 2.7 L AKT3 (PKB gamma) Km app -0.5 Z JAK2 JH1 JH2 Km app -6.7 Z
ROS1 Km app 8.0 Z SPHK1 Km app 2.7 A MAP3K9 (MLK1) Km app -0.5 Z PRKACB (PRKAC beta) n/a -6.8 L
FGFR3 K650E Km app 7.9 Z AMPK A2/B1/G1 Km app 2.6 Z IKBKB (IKK beta) Km app -0.6 Z PDGFRA (PDGFR alpha) Km app -6.8 Z
RAF1 (cRAF) Y340D Y341D 100 7.9 Z DYRK3 Km app 2.6 Z CAMK2A (CaMKII alpha) Km app -0.6 Z NEK9 Km app -7.2 Z
PI4KA (PI4K alpha) 10 7.8 A CSNK1D (CK1 delta) Km app 2.6 Z PRKCB1 (PKC beta I) Km app -0.7 Z PDK1 Km app -7.3 Z
HIPK2 Km app 7.8 Z ACVR2A n/a 2.5 L TTK n/a -0.7 L RPS6KB1 (p70S6K) Km app -7.8 Z
CSK Km app 7.6 Z DDR2 T654M n/a 2.5 L ZAK n/a -0.7 L STK38L (NDR2) n/a -8.4 L
PRKCG (PKC gamma) Km app 7.6 Z JAK2 Km app 2.5 Z IKBKE (IKK epsilon) Km app -0.7 Z ABL1 G250E Km app -8.5 Z
SRMS (Srm) Km app 7.5 Z HIPK3 (YAK1) Km app 2.5 Z CAMK2G (CaMKII gamma) n/a -0.8 L PRKD1 (PKC mu) Km app -8.5 Z
YES1 Km app 7.4 Z AMPK (A1/B1/G2) n/a 2.4 L TLK1 n/a -0.8 L CDK5/p35 Km app -8.6 Z
RPS6KA5 (MSK1) Km app 7.4 Z MYO3B (MYO3 beta) n/a 2.3 L MAPK12 (p38 gamma) Km app -0.8 Z PDGFRA T674I Km app -8.9 Z
TNIK n/a 7.3 L PASK Km app 2.3 Z PRKCI (PKC iota) Km app -0.8 Z BLK Km app -8.9 Z
FER Km app 7.1 Z ACVRL1 (ALK1) n/a 2.3 L PKN2 (PRK2) n/a -1.0 L PRKD2 (PKD2) Km app -9.1 Z
CDK16 (PCTK1)/cyclin Y n/a 7.0 L EGFR (ErbB1) L861Q Km app 2.2 Z PIM1 Km app -1.0 Z CSNK1G2 (CK1 gamma 2) Km app -9.3 Z
MST4 Km app 6.9 Z RPS6KA3 (RSK2) Km app 2.1 Z CDK5/p25 Km app -1.1 Z ROCK1 Km app -9.5 Z
FLT1 (VEGFR1) Km app 6.5 Z STK23 (MSSK1) Km app 2.0 Z SRPK1 Km app -1.1 Z PRKCB2 (PKC beta II) Km app -9.6 Z
DYRK1A Km app 6.4 Z ALK R1275Q n/a 2.0 L BRSK1 (SAD1) Km app -1.1 Z CSNK1G1 (CK1 gamma 1) Km app -9.9 Z
PRKCD (PKC delta) Km app 6.2 Z TBK1 Km app 2.0 Z MAP3K3 (MEKK3) n/a -1.1 L ABL2 (Arg) Km app -10.3 Z
EGFR (ErbB1) Km app 6.0 Z ACVR1B (ALK4) Km app 2.0 Z AMPK A1/B1/G1 Km app -1.2 Z STK3 (MST2) Km app -10.3 Z
CDC7/DBF4 n/a 6.0 L CDK3/cyclin E1 n/a 1.9 L WNK3 n/a -1.2 L CAMK4 (CaMKIV) Km app -10.4 Z
JAK3 Km app 6.0 Z KDR (VEGFR2) Km app 1.8 Z LATS1 n/a -1.3 L MKNK1 (MNK1) Km app -10.7 Z
MAPK13 (p38 delta) Km app 5.8 Z ULK1 n/a 1.8 L DMPK n/a -1.5 L FLT3 ITD n/a -11.6 L
FRAP1 (mTOR) Km app 5.7 Z AURKB (Aurora B) Km app 1.7 Z CDK2/cyclin A1 n/a -1.6 L CHEK2 (CHK2) Km app -11.7 Z
KIT Y823D n/a 5.6 L LRRK2 Km app 1.7 A LIMK1 n/a -1.7 L LTK (TYK1) Km app -13.1 Z
ITK Km app 5.5 Z MAP2K3 (MEK3) n/a 1.6 L DYRK1B Km app -1.8 Z JAK2 JH1 JH2 V617F Km app -13.8 Z
KIT Km app 5.3 Z DAPK1 Km app 1.6 A DDR1 n/a -1.8 L EPHA8 Km app -13.8 Z
CDK7/cyclin H/MNAT1 Km app 5.3 A EPHA6 n/a 1.6 L BTK Km app -2.0 Z EGFR (ErbB1) T790M L858R Km app -14.1 Z
RET Km app 5.2 Z MAP4K1 (HPK1) n/a 1.6 L ADRBK1 (GRK2) Km app -2.0 Z MET M1250T Km app -14.5 Z […]

T1 sequence (Q5S007 whole entry R1441C): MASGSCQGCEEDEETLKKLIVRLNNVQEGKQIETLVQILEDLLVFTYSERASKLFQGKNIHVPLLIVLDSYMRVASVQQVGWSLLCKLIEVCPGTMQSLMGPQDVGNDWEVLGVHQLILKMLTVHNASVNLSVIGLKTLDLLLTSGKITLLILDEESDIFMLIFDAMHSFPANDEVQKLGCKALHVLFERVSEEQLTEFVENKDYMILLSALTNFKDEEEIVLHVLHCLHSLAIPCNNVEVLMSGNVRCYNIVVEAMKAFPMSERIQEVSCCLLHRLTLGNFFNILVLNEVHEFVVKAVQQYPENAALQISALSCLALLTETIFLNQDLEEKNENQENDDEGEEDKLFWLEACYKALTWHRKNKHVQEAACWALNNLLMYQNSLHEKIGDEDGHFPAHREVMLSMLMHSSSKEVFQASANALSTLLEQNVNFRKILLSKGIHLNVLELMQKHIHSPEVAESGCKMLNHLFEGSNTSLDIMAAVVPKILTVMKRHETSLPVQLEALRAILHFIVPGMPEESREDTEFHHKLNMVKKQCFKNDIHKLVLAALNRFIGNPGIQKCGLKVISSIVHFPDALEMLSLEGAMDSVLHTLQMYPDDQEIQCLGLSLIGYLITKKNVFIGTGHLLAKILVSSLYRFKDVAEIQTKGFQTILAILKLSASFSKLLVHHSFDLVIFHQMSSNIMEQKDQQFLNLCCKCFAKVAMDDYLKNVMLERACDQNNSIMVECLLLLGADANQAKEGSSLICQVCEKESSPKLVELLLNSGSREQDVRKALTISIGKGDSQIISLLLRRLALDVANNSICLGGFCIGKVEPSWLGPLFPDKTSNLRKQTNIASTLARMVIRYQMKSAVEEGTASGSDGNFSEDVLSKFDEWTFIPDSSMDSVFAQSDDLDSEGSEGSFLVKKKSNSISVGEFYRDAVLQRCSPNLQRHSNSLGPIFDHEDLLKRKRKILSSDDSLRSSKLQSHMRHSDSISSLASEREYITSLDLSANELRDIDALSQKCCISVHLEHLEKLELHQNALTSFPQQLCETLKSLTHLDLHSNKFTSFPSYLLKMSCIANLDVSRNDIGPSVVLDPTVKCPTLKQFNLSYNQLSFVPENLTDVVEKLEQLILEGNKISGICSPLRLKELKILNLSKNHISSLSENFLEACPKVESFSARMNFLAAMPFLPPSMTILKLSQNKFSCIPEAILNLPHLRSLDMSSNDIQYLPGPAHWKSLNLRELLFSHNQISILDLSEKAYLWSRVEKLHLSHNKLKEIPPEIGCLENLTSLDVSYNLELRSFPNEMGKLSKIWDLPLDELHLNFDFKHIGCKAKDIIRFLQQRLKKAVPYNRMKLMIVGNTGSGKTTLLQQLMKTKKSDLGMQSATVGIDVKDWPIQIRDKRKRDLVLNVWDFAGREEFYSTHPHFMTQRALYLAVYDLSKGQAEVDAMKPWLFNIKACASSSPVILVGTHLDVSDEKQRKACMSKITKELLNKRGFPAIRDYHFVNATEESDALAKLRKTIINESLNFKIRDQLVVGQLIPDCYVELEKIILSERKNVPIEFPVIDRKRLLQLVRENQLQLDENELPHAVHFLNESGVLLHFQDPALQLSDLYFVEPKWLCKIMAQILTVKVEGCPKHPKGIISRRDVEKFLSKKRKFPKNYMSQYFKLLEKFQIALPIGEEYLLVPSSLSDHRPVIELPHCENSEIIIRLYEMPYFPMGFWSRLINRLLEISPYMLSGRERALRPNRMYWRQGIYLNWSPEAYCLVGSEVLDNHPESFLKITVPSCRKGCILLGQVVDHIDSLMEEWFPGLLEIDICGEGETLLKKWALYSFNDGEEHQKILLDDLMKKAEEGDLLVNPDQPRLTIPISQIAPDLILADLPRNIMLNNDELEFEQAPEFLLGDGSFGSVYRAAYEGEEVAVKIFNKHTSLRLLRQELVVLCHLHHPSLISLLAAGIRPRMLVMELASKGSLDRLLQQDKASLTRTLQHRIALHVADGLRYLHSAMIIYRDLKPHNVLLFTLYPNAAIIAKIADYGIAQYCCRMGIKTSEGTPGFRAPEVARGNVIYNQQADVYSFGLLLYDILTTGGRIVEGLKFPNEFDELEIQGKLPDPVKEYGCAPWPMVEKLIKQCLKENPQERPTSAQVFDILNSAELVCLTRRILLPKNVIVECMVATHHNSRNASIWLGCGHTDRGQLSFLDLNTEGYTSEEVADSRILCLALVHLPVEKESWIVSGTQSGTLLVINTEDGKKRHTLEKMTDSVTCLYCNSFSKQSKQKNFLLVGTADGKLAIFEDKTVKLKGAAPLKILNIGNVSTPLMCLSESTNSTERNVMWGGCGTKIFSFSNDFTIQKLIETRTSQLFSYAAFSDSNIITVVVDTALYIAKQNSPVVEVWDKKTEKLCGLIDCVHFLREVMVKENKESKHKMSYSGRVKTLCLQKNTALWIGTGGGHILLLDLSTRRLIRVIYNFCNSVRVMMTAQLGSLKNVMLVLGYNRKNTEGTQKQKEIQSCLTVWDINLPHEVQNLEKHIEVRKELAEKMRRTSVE

## CN(C(=O)CN1CCOCC1)c1ccc2sc3c(-c4cccc5c(=O)cc(N6CC7CCC(C6)O7)oc45)cccc3c2c1 [NU5455]
  inhibition at 1 µM: 1.8%
